Measurements from ChEMBL document CHEMBL1152099, “C5-piperazinyl-1,4-benzodiazepines, water-soluble, orally bioa vailable CCKB/gastrin receptor antagonists” (Bioorg Med Chem Lett, 1995).
Converted amounts (≈) assume the structure as drawn.

How the values were obtained:
[1] = target: T1, Cholecystokinin receptor type A (Rattus norvegicus, UniProt P30551); experiment: Displacement of [125I]-BH CCK-8S from Cholecystokinin type A receptor in rat pancreas
T1 sequence (P30551 whole entry): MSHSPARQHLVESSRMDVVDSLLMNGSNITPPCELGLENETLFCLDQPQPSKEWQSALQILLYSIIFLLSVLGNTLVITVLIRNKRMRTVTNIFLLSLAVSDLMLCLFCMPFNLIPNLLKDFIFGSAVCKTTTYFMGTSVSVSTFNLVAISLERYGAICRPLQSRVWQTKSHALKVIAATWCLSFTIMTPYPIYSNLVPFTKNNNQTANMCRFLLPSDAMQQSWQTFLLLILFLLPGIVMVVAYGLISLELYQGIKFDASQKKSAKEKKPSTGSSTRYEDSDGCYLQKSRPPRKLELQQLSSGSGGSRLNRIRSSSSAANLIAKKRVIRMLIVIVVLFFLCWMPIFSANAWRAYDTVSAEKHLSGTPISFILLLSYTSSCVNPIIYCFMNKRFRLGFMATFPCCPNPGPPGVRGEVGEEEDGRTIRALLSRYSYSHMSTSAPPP

[2] = target: T2, Cholecystokinin receptor type A (Rattus norvegicus) (UniProt P30551); experiment: Compound was tested for its binding affinity by measuring the displacement of [125I]-BH CCK-8S from CCKA receptor in rat pancreas at a concentration of 3000 nM
T2 sequence (whole entry): T1 sequence (P30551 whole entry)

[3] = Compound was tested for solubility in water; type: ADME; conditions: read-out: S
[4] = Tmax was determined; type: ADME, organism-based; conditions: rat, in vivo
Rattus norvegicus = species on record: Rattus norvegicus; experiment: Compound was tested for its ability to block pentagastrin-induced single cell firing rate of rat ventromedial hyphalamic (VMH) neurons; type: functional
[5] = Plasma half-life was determined; type: ADME, organism-based; conditions: rat
[6] = Maximum plasma drug concentration was determined; type: ADME, organism-based; conditions: rat
[7] = Bioavailability; type: ADME, organism-based; conditions: rat, in vivo

| SMILES | IC50 [1] [µM] | inhibition [2] [%] | also measured |
| --- | --- | --- | --- |
| Cc1cccc(NC(=O)NC2N=C(N3CCN(C)CC3)c3ccccc3N(C)C2=O)c1 (configuration not stated) | 4.26 | – | – |
| CCCN1C(=O)C(NC(=O)Nc2cccc(CC)c2)N=C(N2CCN(C)CC2)c2ccccc21 (configuration not stated) | > 3 | 46 | – |
| CCCN1C(=O)C(NC(=O)Nc2cccc(C(F)(F)F)c2)N=C(N2CCN(C)CC2)c2ccccc21 (configuration not stated) | 3.8 | – | – |
| CCCc1cccc(NC(=O)NC2N=C(N3CCN(C)CC3)c3ccccc3N(CCC)C2=O)c1 (configuration not stated) | 5.31 | – | – |
| Cc1cccc(NC(=O)NC2N=C(N3CCN(C(=O)OC(C)(C)C)CC3)c3ccccc3N(C)C2=O)c1 (configuration not stated) | > 3 | 0 | – |
| Cc1cccc(NC(=O)NC2N=C(N3CCNCC3)c3ccccc3N(C)C2=O)c1 (configuration not stated) | > 3 | 3 | – |
| Cc1cccc(NC(=O)N[C@@H]2N=C(c3ccccc3)c3ccccc3N3C[C@H](C)N=C23)c1 | 1.56 | – | – |

Now from value to compound, other results behind:

| IC50 [1] [µM] | inhibition [2] [%] | SMILES | also measured |
| --- | --- | --- | --- |
| 3.2 | – | CCCN1C(=O)C(NC(=O)Nc2cccc(C)c2)N=C(N2CCN(C)CC2)c2ccccc21 (configuration not stated) | – |
| 1.9 | – | CCCN1C(=O)[C@@H](NC(=O)Nc2cccc(C)c2)N=C(N2CCN(C)CC2)c2ccccc21 | – |
| > 3 | 11 | CCCN1C(=O)[C@H](NC(=O)Nc2cccc(C)c2)N=C(N2CCN(C)CC2)c2ccccc21 | solubility [3]: 0.6 mg/mL (≈ 1340 µM); Tmax [4]: 5 min; Kb (Rattus norvegicus): 0.0018 µM; half-life [5]: 55 min; Cmax [6]: 0.469 µg/mL; bioavailability [7]: 51% |
| > 3 | 15 | CCCN1C(=O)C(NC(=O)Nc2cccc(OC)c2)N=C(N2CCN(C)CC2)c2ccccc21 (configuration not stated) | – |
